Experimental data as given in patent publication US7053064B2, “Compounds for the treatment of tobacco dependence and withdrawal” (The McLean Hospital Corporation, priority 2002, dated 2006).
Read-outs that look alike come from different tables or passages of the source.

Legend:
mammals = settings: cited from earlier work
[1] = cited from earlier work
human subjects = experiment: effects of citicoline on tobacco use (cigarettes smoked per day) versus placebo; type: in vivo; settings: compared to placebo, FIG. 1
From the text: FIG. 1 is a graph of the effects of citicoline on tobacco use.

[2] = cited from earlier work; remark: listed apart in the source
humans = settings: cited from earlier work
[3] = major excretion route, % of dose

For `C[N+](C)(C)CCOP(=O)(O)OP(=O)([O-])OC[C@H]1O[C@@H](n2ccc(N)nc2=O)[C@H](O)[C@@H]1O` [CDP-choline, cytidine 5′-diphosphocholine], the tolerability (mammals; mammals) is given as “well tolerated”, the “rest of the dose metabolized and retained in tissues” value ([1]; % of dose) is given as 83.9% and the “conversion into circulating metabolites” value ([1]; administered either orally or intravenously) is given as “rapidly converted into the two major circulating metabolites, choline and cytidine”. The excretion via lung [1, 3] was 12.9%, the excretion via urine [1, 3] was 2.4% and the “CDP-choline and/or its metabolites absorbed” value ([1]; orally administered) was “more than 99%”. For the same compound, the excreted in feces ([1]; orally administered) was “less than 1%”, the “usage of tobacco (number of cigarettes smoked per day)” value (human subjects) was “reduces the usage of tobacco” and the “reported cases of overdoses” value ([2]; in vivo) was “no reported cases of overdoses”. For the same compound, the “toxicity symptoms on ingestion of large amounts” value ([2]; preclinical studies, salivation, lacrimation, urination, defecation, vomiting) was “common cholinergic symptoms”.

In the case of `CC(=O)OC[C@H]1O[C@@H](n2ccc(=O)[nH]c2=O)[C@H](OC(C)=O)[C@@H]1OC(C)=O` [triacetyl uridine], the tolerability (mammals; in vivo) is listed as “well tolerated”.

For `O=c1ccn([C@@H]2O[C@H](CO)[C@@H](O)[C@H]2O)c(=O)[nH]1` [uridine], the tolerability (mammals; mammals) is given as “well tolerated” and the tolerability (humans) is given as “well tolerated”.

For `CN(CC(=O)O)C(=N)N` [Creatine, creatine], the tolerability (humans) is listed as “well tolerated at relatively high doses”.
